Experimental data from the NIST ThermoML archive (doi:10.1021/je049973v).

Conditions: Liquid; for speed of sound: Pulse-echo method; for mass density: Vibrating tube method

CCCCCCCCCCCCCCCCCc1ccccc1 [heptadecane, 1-phenyl-]
Conditions	mass density [kg/m3]	speed of sound [m/s]
303.15 K, 100 kPa	847.62	1422.6
303.15 K, 5000 kPa	850.37	–
303.15 K, 10000 kPa	853.14	1467.5
303.15 K, 15000 kPa	855.85	–
303.15 K, 20000 kPa	858.47	1510.9
303.15 K, 25000 kPa	861	–
303.15 K, 30000 kPa	863.37	1552
303.15 K, 35000 kPa	865.81	–
303.15 K, 40000 kPa	868.19	1590.5
303.15 K, 45000 kPa	870.43	–
303.15 K, 50000 kPa	872.65	1627.2
303.15 K, 55000 kPa	874.7	–
303.15 K, 60000 kPa	876.93	1661.9
303.15 K, 70000 kPa	–	1695.6
313.15 K, 100 kPa	840.87	1387.1
313.15 K, 5000 kPa	843.75	–
313.15 K, 10000 kPa	846.65	1433.6
313.15 K, 15000 kPa	849.47	–
313.15 K, 20000 kPa	852.17	1479.2
313.15 K, 25000 kPa	854.73	–
313.15 K, 30000 kPa	857.38	1520.4
313.15 K, 35000 kPa	859.9	–
313.15 K, 40000 kPa	862.24	1559.7
313.15 K, 45000 kPa	864.56	–
313.15 K, 50000 kPa	866.8	1597.9
313.15 K, 55000 kPa	869.08	–
313.15 K, 60000 kPa	870.6	1633.6
313.15 K, 70000 kPa	–	1667.3
313.15 K, 80000 kPa	–	1700
313.15 K, 90000 kPa	–	1731.8
313.15 K, 100000 kPa	–	1762
313.15 K, 110000 kPa	–	1790.2
313.15 K, 120000 kPa	–	1818.7
313.15 K, 130000 kPa	–	1847.1
323.15 K, 100 kPa	834.27	1352.6
323.15 K, 5000 kPa	837.23	–
323.15 K, 10000 kPa	840.29	1402.3
323.15 K, 15000 kPa	843.15	–
323.15 K, 20000 kPa	845.93	1447.9
323.15 K, 25000 kPa	848.7	–
323.15 K, 30000 kPa	851.34	1490.8
323.15 K, 35000 kPa	853.89	–
323.15 K, 40000 kPa	856.43	1531.1
323.15 K, 45000 kPa	858.84	–
323.15 K, 50000 kPa	861.35	1569.2
323.15 K, 55000 kPa	863.55	–
323.15 K, 60000 kPa	865.8	1605.8
323.15 K, 70000 kPa	–	1640.7
323.15 K, 80000 kPa	–	1673.9
323.15 K, 90000 kPa	–	1705.8
323.15 K, 100000 kPa	–	1736.6
323.15 K, 110000 kPa	–	1766.3
323.15 K, 120000 kPa	–	1794.9
323.15 K, 130000 kPa	–	1822.8
323.15 K, 140000 kPa	–	1849.3
323.15 K, 150000 kPa	–	1875.5
333.15 K, 100 kPa	827.59	1319.9
333.15 K, 5000 kPa	830.84	–
333.15 K, 10000 kPa	833.94	1370.2
333.15 K, 15000 kPa	837.13	–
333.15 K, 20000 kPa	839.97	1417.3
333.15 K, 25000 kPa	842.84	–
333.15 K, 30000 kPa	845.52	1461.4
333.15 K, 35000 kPa	848.14	–
333.15 K, 40000 kPa	850.62	1502.9
333.15 K, 45000 kPa	853.3	–
333.15 K, 50000 kPa	855.69	1542.1
333.15 K, 55000 kPa	858	–
333.15 K, 60000 kPa	860.35	1579.2
333.15 K, 70000 kPa	–	1614.6
333.15 K, 80000 kPa	–	1648.7
333.15 K, 90000 kPa	–	1681.3
333.15 K, 100000 kPa	–	1712.2
333.15 K, 110000 kPa	–	1742.3
333.15 K, 120000 kPa	–	1771.7
333.15 K, 130000 kPa	–	1799.8
333.15 K, 140000 kPa	–	1826.9
333.15 K, 150000 kPa	–	1853.6
343.15 K, 100 kPa	820.95	1287
343.15 K, 5000 kPa	824.32	–
343.15 K, 10000 kPa	827.71	1338.7
343.15 K, 15000 kPa	830.75	–
343.15 K, 20000 kPa	833.93	1387.3
343.15 K, 25000 kPa	836.75	–
343.15 K, 30000 kPa	839.62	1432.3
343.15 K, 35000 kPa	842.4	–
343.15 K, 40000 kPa	845.11	1475.5
343.15 K, 45000 kPa	847.75	–
343.15 K, 50000 kPa	850.31	1515.3
343.15 K, 55000 kPa	852.73	–
343.15 K, 60000 kPa	855.09	1553.3
343.15 K, 70000 kPa	–	1589.5
343.15 K, 80000 kPa	–	1624.1
343.15 K, 90000 kPa	–	1657.2
343.15 K, 100000 kPa	–	1688
343.15 K, 110000 kPa	–	1719.2
343.15 K, 120000 kPa	–	1748.7
343.15 K, 130000 kPa	–	1777.4
343.15 K, 140000 kPa	–	1805
343.15 K, 150000 kPa	–	1832
353.15 K, 100 kPa	814.43	1255.2
353.15 K, 5000 kPa	817.93	–
353.15 K, 10000 kPa	821.35	1308.6
353.15 K, 15000 kPa	824.69	–
353.15 K, 20000 kPa	827.9	1359.3
353.15 K, 25000 kPa	830.86	–
353.15 K, 30000 kPa	833.85	1405.3
353.15 K, 35000 kPa	836.9	–
353.15 K, 40000 kPa	839.55	1448.5
353.15 K, 45000 kPa	842.1	–
353.15 K, 50000 kPa	844.78	1489.5
353.15 K, 55000 kPa	847.34	–
353.15 K, 60000 kPa	849.77	1528.3
353.15 K, 70000 kPa	–	1564.8
353.15 K, 80000 kPa	–	1600.1
353.15 K, 90000 kPa	–	1633.4
353.15 K, 100000 kPa	–	1665.5
353.15 K, 110000 kPa	–	1696.9
353.15 K, 120000 kPa	–	1726.9
353.15 K, 130000 kPa	–	1755.8
353.15 K, 140000 kPa	–	1783.8
353.15 K, 150000 kPa	–	1811.1
363.15 K, 100 kPa	807.8	1223.6
363.15 K, 5000 kPa	811.3	–
363.15 K, 10000 kPa	815.14	1278.7
363.15 K, 15000 kPa	818.57	–
363.15 K, 20000 kPa	821.81	1330.3
363.15 K, 25000 kPa	824.97	–
363.15 K, 30000 kPa	828	1378
363.15 K, 35000 kPa	830.94	–
363.15 K, 40000 kPa	833.81	1422.2
363.15 K, 45000 kPa	836.5	–
363.15 K, 50000 kPa	839.26	1464
363.15 K, 55000 kPa	841.95	–
363.15 K, 60000 kPa	844.41	1503.3
363.15 K, 70000 kPa	–	1541.1
363.15 K, 80000 kPa	–	1576.4
363.15 K, 90000 kPa	–	1610.7
363.15 K, 100000 kPa	–	1643.4
363.15 K, 110000 kPa	–	1674.6
363.15 K, 120000 kPa	–	1705
363.15 K, 130000 kPa	–	1734.4
363.15 K, 140000 kPa	–	1763.3
363.15 K, 150000 kPa	–	1790
373.15 K, 100 kPa	801.11	1193
373.15 K, 5000 kPa	805.07	–
373.15 K, 10000 kPa	808.86	1249.5
373.15 K, 15000 kPa	812.48	–
373.15 K, 20000 kPa	815.93	1302.6
373.15 K, 25000 kPa	819.17	–
373.15 K, 30000 kPa	822.4	1351.4
373.15 K, 35000 kPa	825.42	–
373.15 K, 40000 kPa	828.43	1396.8
373.15 K, 45000 kPa	831.28	–
373.15 K, 50000 kPa	834.03	1439.2
373.15 K, 55000 kPa	836.72	–
373.15 K, 60000 kPa	839.37	1479.7
373.15 K, 70000 kPa	–	1517.7
373.15 K, 80000 kPa	–	1553.8
373.15 K, 90000 kPa	–	1588.6
373.15 K, 100000 kPa	–	1621.8
373.15 K, 110000 kPa	–	1653.6
373.15 K, 120000 kPa	–	1684.3
373.15 K, 130000 kPa	–	1713.8
373.15 K, 140000 kPa	–	1742.7
373.15 K, 150000 kPa	–	1770.5
